Holding throughout (assay type): cell-based, Chinese Hamster
Experiment [1] concerns CHO cell line 1. Briefly: Harvest antibody titer (Poros A Protein A affinity HPLC). As to conditions: for harvest titer compared to unsupplemented control: 1-50 mM supplementation. As for the experimental part: (§1) A recombinant Chinese Hamster Ovary (CHO) cell line (Cell Line 1) expressing a humanized monoclonal antibody (Antibody 1) was evaluated in shaker flask cultures. The cell line was of CHO DUX-B11 origin based on a dhfr (dihydrofolate reductase) expression system, and cultured in a chemically defined basal and chemically-defined feed media. Each of the respective cultures were supplemented with selected monosaccharides and oligosaccharides to evaluate for their potential impact on the resulting N-glycan oligosaccharide profile. All sugars were purchased from Sigma-Aldrich (St. Louis, Mo.), and dissolved at the concentrations referenced below in the cell culture media. Unless specified otherwise, all sugars evaluated were in their D-form. In preparation of the cultures, the cell lines were expanded through seed train inoculums to generate enough cells for inoculation.
Antibody titers were measured from crude cell culture harvests on a Poros A™ (Life Technologies, Carlsbad, Calif.) affinity column using an Agilent (Santa Clara, Calif.) 1200 Series HPLC, or equivalent, operating with a low pH, step elution gradient with detection at 280 nm. Absolute concentrations were assigned with respect to reference standard calibration curves.

Experiment [2] relates to Cell Line 1 expressing a humanized monoclonal antibody (Antibody 1). Briefly: N-glycan oligosaccharide profiling of Protein A purified antibody (reduced heavy chain, RP-HPLC/Q-TOF MS). As to conditions: for redirecting the N-glycan glycoform profile: 250 mL shaker flask cultures, defined supplementation range. The procedure:
as §1
Purified antibodies subjected to additional analytical characterization were purified using MabSelect™ Protein A (GE Healthcare, Piscataway, N.J.) using a low pH, step elution gradient, followed by neutralization, and subsequently buffer exchanged when necessary using Amicon centrifugal filters (EMD Millipore, Billerica, Mass.) according to the manufacturer's recommended procedure.
The heavy chain of adalimumab was analyzed using an HPLC (Agilent 1260, Santa Clara, Calif.) with a reversed phase column (Vydac, C4, 1×150 mm, 5μ particle size) coupled to a Q-TOF mass spectrometer (Agilent, 6510). Protein A purified samples from cell culture harvests were first reduced using DTT at 37° C. for 30 minutes. The samples were then loaded using 95% mobile phase A (0.08% formic acid and 0.02% TFA in water) and 5% mobile phase B (0.08% formic acid and 0.02% TFA in acetonitrile), and then eluted using a gradient of increasing levels of mobile phase B. The flow rate was 50 μL/min and the column temperature was set to 60° C. The mass spectrometer was operated in positive ion mode with an ion spray voltage of 4500 volts and a source temperature of 350° C. Resolved peaks centered on the known masses of different N-glycans was subsequently used to identify the different types of N-glycans, and the relative peak heights were used to quantitate their respective levels.

The test system of experiment [3] is CHO cell line 1. Briefly: Viable cell density and cell viability of shaker flask cultures (trypan blue exclusion, Cedex). As to conditions: for peak VCD compared to control: 50 mM supplementation; for cell viability profile: 1-50 mM supplementation; for cell growth compared to the unsupplemented control: sugar 1, 10, 25, 50 mM in basal media, shaker flask. As for the experimental part:
as §1
Viable cell density (VCD) and cell viability values were measured through trypan blue exclusion via Cedex automated cell counters (Roche Applied Science, Indianapolis, Ind.). Initial viable cell density and viability in the cultures were targeted towards the same value. Immediately after inoculation, only a handful of each of the shake flasks were sampled for VCD and viability, and the results were averaged. All Day 0 values amongst these flasks were thus reported to be at this average. The cultures were harvested on Process Days 9-10, or when cell viability dropped below 50%, whichever occurred first.

The mark [4] stands for this setting: 1-50 mM vs unsupplemented control.
Setting [5] is: the higher concentrations evaluated.
Where [6] appears, read: across all supplemented concentrations (1-50 mM).
[7] abbreviates: each of the concentrations evaluated (1-50 mM).

Bounds are passed on as bounds.

With `OC[C@H]1O[C@@H](O[C@H]2[C@H](O)[C@@H](O)C(O)O[C@@H]2CO)[C@H](O)[C@@H](O)[C@H]1O` (stereo partly drawn) [lactose], the relative harvest titer with CHO cell line 1 [1] (1 mM (lowest across tested concentrations)) is listed as 0.87. Also, the “harvest titer compared to unsupplemented control” value with CHO cell line 1 [1] is “small decrease in harvest titers”. In addition, the “G0F N-glycan levels” value in experiment [2] (setting [4]) is listed as “almost equal drop”. Moreover, the “redirecting the N-glycan glycoform profile” value in experiment [2] is “toward the complex, galactosylated type”. For the same compound, in experiment [2] (at most, across 1-50 mM), the “increase in G1F species” value is at most 4% and the “increase in G2F species” value is on record as at most 2%. Besides, in the experiment with CHO cell line 1 [3], the “peak VCD compared to control” value is “noticeably lower than the control”, the cell viability profile entry is reported as “no adverse impact” and the “cell growth compared to the unsupplemented control” value was “no adverse impact towards cell growth performance”.
In the case of `OC[C@H]1O[C@H](OC[C@H]2OC(O)(CO)[C@@H](O)[C@@H]2O)[C@H](O)[C@@H](O)[C@@H]1O` (stereo partly drawn) [palatinose], the “harvest titer compared to unsupplemented control” value in the experiment with CHO cell line 1 [1] is on record as “slightly less antibody product”. In addition, in experiment [2] (setting [4]), the “G0F N-glycan levels” value is given as “significant decrease”; the “N-glycan oligosaccharide profile change upon supplementation” value was “increase Man5, G0F-GlcNAc, G1F, and G2F N-glycans in a palatinose concentration-dependent manner”. The “redirecting the N-glycan glycoform profile” value in experiment [2] is on record as “toward the high mannose type”. In the experiment on CHO cell line 1 [3], the cell viability profile result is “reasonably consistent with each other” and the “cell growth compared to the unsupplemented control” value was “only the lowest concentration (1 mM) supported a cell growth profile that closely approximated that of the unsupplemented control”. Further, the “peak VCD compared to the unsupplemented control” value in the experiment on CHO cell line 1 [3] (setting [5]) is given as “lower peak viable cell densities”.
`O=C(CO)[C@@H](O[C@H]1O[C@H](CO)[C@@H](O)[C@H](O)[C@H]1O)[C@H](O)[C@H](O)CO` [turanose]: the “drop in harvest titer” value in the experiment on CHO cell line 1 [1] (50 mM (largest drop)) stood at 10%. For the same compound, in the experiment on CHO cell line 1 [1], the “harvest titer compared to unsupplemented control” value is “small drop in harvest titer”. The “increase in G1F” value in experiment [2] (1 mM) stood at 0.2%. Further, the “increase in G2F” value in experiment [2] (10 mM) was determined as 3%. The “increase in G2F” value in experiment [2] (25 mM) is given as 7%. In experiment [2] (50 mM), the “increase in G1F” value amounted to 14%. In addition, the “N-glycan oligosaccharide profile change upon supplementation” value in experiment [2] (setting [4]) is “increase of G1F and G2F species, which came at the expense of the G0F and G0F-GlcNAc species”. Besides, in experiment [2], the “redirecting the N-glycan glycoform profile” value is on record as “toward the complex, galactosylated type”. Further, in the experiment on CHO cell line 1 [3], the “peak VCD compared to control” value was “small nominal drop”, the cell viability profile result is “did not show a very significant adverse impact” and the “cell growth compared to the unsupplemented control” value is “did not show a very significant adverse impact towards cell growth”.
For the compound `OC[C@H]1O[C@@H](O[C@@H]2[C@@H](CO)OC(O)(CO)[C@H]2O)[C@H](O)[C@@H](O)[C@H]1O` (mixture of isomers) [lactulose], the harvest titer ratio with CHO cell line 1 [1] (50 mM) is recorded as 0.89. In addition, in the experiment on CHO cell line 1 [1], the “harvest titer compared to unsupplemented control” value is “only nominally impacted”. In addition, in experiment [2] (setting [4]), the “G0F N-glycan levels” value is listed as “approximately equal drop”; the “N-glycan oligosaccharide profile change upon supplementation” value is “lactulose dependent increase in Man5, G0F-GlcNAc, and G1F N-glycans”. Also, in experiment [2], the “redirecting the N-glycan glycoform profile” value is given as “toward the high mannose type”. Further, in the experiment with CHO cell line 1 [3], the “peak VCD compared to control” value was “drop in VCD”, the cell viability profile entry is on record as “no adverse impact” and the “cell growth compared to the unsupplemented control” value is “only the 50 mM level of this sugar had a slightly adverse impact to cell growth performance”.
On to `OC[C@H]1O[C@H](OC[C@H]2O[C@H](O[C@]3(CO)O[C@H](CO)[C@@H](O)[C@@H]3O)[C@H](O)[C@@H](O)[C@@H]2O)[C@H](O)[C@@H](O)[C@H]1O` [raffinose], for which the “harvest titer compared to unsupplemented control” value in the experiment with CHO cell line 1 [1] was “closely approximated each other”. Besides, in experiment [2], the “redirecting the N-glycan glycoform profile” value is listed as “toward the high mannose type”. Besides, the “increase in Man5, G0F-GlcNAc, and G1F compared to the unsupplemented control” value in experiment [2] (concentration-dependent, 1-50 mM) is given as above 2%. Also, in the experiment with CHO cell line 1 [3], the cell viability profile entry was “closely approximated each other” and the “cell growth compared to the unsupplemented control” value is listed as “comparable to the unsupplemented control up to a raffinose concentration of 10 mM”. For the same compound, the “peak VCD compared to the unsupplemented control” value with CHO cell line 1 [3] (setting [5]) was “lower than that of the unsupplemented control”.
In the case of `OC[C@H]1O[C@@](CO)(O[C@H]2O[C@H](CO)[C@@H](O)[C@H](O)[C@H]2O)[C@@H](O[C@H]2O[C@H](CO)[C@@H](O)[C@H](O)[C@H]2O)[C@@H]1O` [melezitose], the harvest titer ratio in the experiment with CHO cell line 1 [1] (10 mM (lowest result observed)) is recorded as 0.82. The “harvest titer compared to unsupplemented control” value in the experiment on CHO cell line 1 [1] is given as “nominally reduce the harvest titer”. Further, the “increase in G1F” value in experiment [2] (1 mM) worked out at 1%. Moreover, the “increase in G1F” value in experiment [2] (10 mM) is 9%. Further, the “increase in G1F” value in experiment [2] (25 mM) came out at 20%. Moreover, in experiment [2] (50 mM), the “increase in G1F” value is 28%. Moreover, in experiment [2] (setting [4]), the G0 type glycans entry was “almost equal drop in relative value”; the “G2 N-glycan change” value is “mirrored these results, albeit at a much lower overall percent change”; the “N-glycan oligosaccharide profile change upon supplementation” value is listed as “largest % impact on the protein glycosylation profile”. Moreover, the “redirecting the N-glycan glycoform profile” value in experiment [2] is on record as “toward the complex, galactosylated type”. Also, the Man5 levels entry in experiment [2] (all tested concentrations) is “Reduced levels”. For the same compound, in the experiment with CHO cell line 1 [3], the “peak VCD compared to control” value is given as “drop in peak VCD”, the cell viability profile entry is reported as “no adverse impact” and the “cell growth compared to the unsupplemented control” value is given as “only the 50 mM condition had an adverse impact on cell growth”.
For the compound `O=C(CO)[C@H](O)[C@H](O)[C@H](O)CO` [psicose], the “harvest titer compared to unsupplemented control” value in the experiment on CHO cell line 1 [1] was “slightly lower compared to the control”. Also, in the experiment on CHO cell line 1 [1] (setting [6]), the harvest titer ratio was above 0.88. Besides, in experiment [2] (setting [4]), the “G0F N-glycan levels” value is listed as “dropped in an almost equal fashion”; the “N-glycan oligosaccharide profile change upon supplementation” value is “increase Man5, G0F-GlcNAc, and G1F species in a psicose concentration-dependent manner”. Further, the “redirecting the N-glycan glycoform profile” value in experiment [2] is reported as “toward the high mannose type”. In addition, the cell viability profile result in the experiment with CHO cell line 1 [3] is listed as “no significant changes”. The “peak VCD compared to the unsupplemented control” value in the experiment with CHO cell line 1 [3] (setting [7]) is “lower peak VCD”.
For the compound `OC[C@H]1O[C@H](O[C@H]2O[C@H](CO)[C@@H](O)[C@H](O)[C@H]2O)[C@H](O)[C@@H](O)[C@@H]1O` [trehalose], the “harvest titer compared to unsupplemented control” value with CHO cell line 1 [1] was “slightly lower values”. Further, the harvest titer ratio in the experiment on CHO cell line 1 [1] (setting [6]) is above 0.85. In addition, in experiment [2] (setting [4]), the “G0F N-glycan levels” value is “significant decrease”; the “N-glycan oligosaccharide profile change upon supplementation” value was “more Man5 and G0F-GlcNAc levels”. The “redirecting the N-glycan glycoform profile” value in experiment [2] is reported as “toward the high mannose type”. For the same compound, the cell viability profile entry in the experiment on CHO cell line 1 [3] was “not affected”. In the experiment on CHO cell line 1 [3] (setting [7]), the “peak VCD compared to the unsupplemented control” value is on record as “lower peak VCD”.

The values are drawn from patent publication US20170355760A1, “METHODS FOR MODULATING THE GLYCOSYLATION PROFILE OF RECOMBINANT PROTEINS USING SUGARS” (AbbVie Inc., priority 2014, published 2017).
